Results on two molecules are retold here after patent US10945978B2, “Treatment and diagnosis of melanoma” (The Rockefeller University, priority 2012, dated 2021).

Structures can show the parent of a compound that is named as a salt.

Assay [1] has as its system HT-144 melanoma line, SK-Mel-334.2 primary melanoma line. The assay is described as follows: Lung metastatic colonization by HT-144 and SK-Mel-334.2 cells in NOD scid mice. The class given is in vivo, human. As to the method: Melanoma cells used for in vivo metastasis assays were transduced with a stably expressed retroviral construct encoding a luciferase reporter gene (Ponomarev et al., 2004), allowing us to monitor the in vivo progression of melanoma cells by bioluminescence imaging. The following numbers of melanoma cells, resuspended in 100 μL of PBS, were injected intravenously via the tail-vein: 4×10^4 MeWo cells, 2.5×10^5 HT-144 cells, 2×10^5 SK-Mel-334.2 cells, 5×10^4B16F10 cells, and 1×10^5 YUMM cells. The MeWo, HT-144, and SK-Mel-334.2 cells were injected into 6-8 week-old sex-matched NOD scid mice, while the B16F10 and YUMM cells were injected into 6-8 week-old sex-matched C57BL/6 mice. In all experiments assessing at the effects of GW3965 on metastasis formation, mice were pre-treated on a control diet or a GW3965-supplemented diet (20 mg/kg) for 10 days. To assess the effect of GW3965 treatment on brain metastasis, 1×10^5 MeWo brain-metastatic derivatives were injected intracardially into athymic nude mice. Immediately following injection, mice were randomly assigned to a control diet or GW3965-supplemented diet (100 mg/kg). […]

Assay [2] relates to MeWo human melanoma cells. Description: Subcutaneous MeWo tumor growth in immunocompromised mice. The class given is in vivo. Conditions: oral, GW3965-supplemented diet.
Protocol: Animals were palpated weekly for tumor formation, after which sizeable tumors were measured twice a week. Tumor volume was calculated as (small diameter)^2×(large diameter)/2.
Assay [3] relates to SK-Mel-2 human melanoma cells. The assay is described as follows: Subcutaneous SK-Mel-2 tumor growth in immunocompromised mice. It counts as in vivo. The settings on record: oral, GW3965-supplemented diet.
The test system of assay [4] is B-Raf^V600E/+; Pten^−/−; CDKN2A^−/− primary mouse melanoma cells. Description: B-RafV600E/+; Pten−/−; CDKN2A−/− melanoma cells in syngeneic C57BL/6 mice. The settings on record: GW3965 diet 100 mg/kg. It counts as in vivo. As for the experimental part:
Melanoma cells used for in vivo metastasis assays were transduced with a stably expressed retroviral construct encoding a luciferase reporter gene (Ponomarev et al., 2004), allowing us to monitor the in vivo progression of melanoma cells by bioluminescence imaging. The following numbers of melanoma cells, resuspended in 100 μL of PBS, were injected intravenously via the tail-vein: 4×10^4 MeWo cells, 2.5×10^5 HT-144 cells, 2×10^5 SK-Mel-334.2 cells, 5×10^4B16F10 cells, and 1×10^5 YUMM cells. The MeWo, HT-144, and SK-Mel-334.2 cells were injected into 6-8 week-old sex-matched NOD scid mice, while the B16F10 and YUMM cells were injected into 6-8 week-old sex-matched C57BL/6 mice. […] To assess the effect of GW3965 treatment on brain metastasis, 1×10^5 MeWo brain-metastatic derivatives were injected intracardially into athymic nude mice. Immediately following injection, mice were randomly assigned to a control diet or GW3965-supplemented diet (100 mg/kg). To determine whether oral delivery of GW3965 can inhibit the progression of incipient metastasis, NOD Scid mice were intravenously injected with 4×10^4 MeWo cells and the cells were allowed to colonize the lungs for 42 days, after which mice were blindedly assigned to a control diet or a GW3965-supplemented diet (100 mg/kg) treatment.

The test system of assay [5] is RCC human renal cancer cells, PANC1 human pancreatic cancer cells, H460 human lung cancer cells. The assay is described as follows: Matrigel invasion of renal, pancreatic and lung cancer cells treated with GW3965. It counts as cell-based. Conditions: 1 μM for 72 hours prior to the assay. As to the method:
Various cell lines (5×10^4 RCC human renal cancer cells, 5×10^4 PANC1 human pancreatic cancer cells, and 5×10^4 H460 human lung cancer cells) were treated with DMSO or GW3965 at 1 μM for 56 hours. The cells were serum starved for 16 hours in 0.2% FBS media in the presence of DMSO or GW3965. Following serum starvation, the cells were subjected to the trans-well invasion assay using a matrigel invasion chamber system (354480, BD Biosciences). Invasion chambers were pre-equilibrated prior to the assay by adding 0.5 mL of starvation media to the top and bottom wells. Meanwhile, cancer cells were trypsinized and viable cells were counted using trypan blue. Cancer cells were then resuspended at a concentration of 1×10^5 cells/1 mL starvation media, and 0.5 mL of cell suspension, containing 5×10^4 cells, was seeded into each trans-well. The invasion assay was allowed to proceed for 24 hours at 37° C. […] Following fixation, the inserts were washed in PBS and then cut out and mounted onto slides using VectaShield mounting medium containing DAPI nuclear stain (H-1000, Vector Laboratories). The basal side of each insert was imaged using an inverted fluorescence microscope (Zeiss Axiovert 40 CFL) at 5× magnification, and the number of DAPI-positive cells was quantified using ImageJ.

Assay [6] concerns MDA-468 human breast cancer cells. Description: MDA-468 breast cancer tumor growth in Nod Scid gamma mice. It counts as in vivo. The settings on record: GW3965-supplemented diet 75 mg/kg/day. As to the method:
The mice were assigned to a control diet treatment or a GW3965-supplemented diet treatment (75 mg/kg/day) two days prior to injection of the cancer cells.

Assay [7] deals with DTIC-resistant MeWo human melanoma cells. The settings on record: oral, GW3965 diet 100 mg/kg.
Protocol: Following growth of tumors to 5-10 mm^3 in volume, mice were blindedly assigned to the following treatment groups: (1) control diet; (2) control diet+DTIC (50 mg/kg); (3) GW3965-supplemented diet (100 mg/kg). […] DTIC was administered daily, as described above, in cycles consisting of 5 consecutive daily treatments interspersed by 2-day off-treatment intervals. Tumor growth was measured twice a week.
Another assay has as its system HUVEC's. Description: Endothelial migration and chemotaxis assays (cancer cell-free). Also noted: species or system human. The settings on record: trans-well assay and gradient-based chemotactic assay. As to the method:
Serum-starved HUVEC's were pulsed with Cell Tracker Red CMTPX dye for 45 minutes and seeded into HTS Fluoroblock trans-well inserts at a concentration of 1×10^5 HUVEC's in 0.5 mL starvation media per each insert. The assay was allowed to proceed for 16-18 hours at 37° C., and the inserts were processed and analyzed as described above (See Matrigel Invasion Assay).
HUVEC's were serum-starved in 0.2% FBS EGM-2 media for 16 hours and labeled with Cell Tracker Red CMTPX dye for 45 minutes. Meanwhile, the indicated amounts (1-5 jag) of recombinant human ApoE3 or BSA were mixed with 250 μL of matrigel (356231, BD Biosciences) and allowed to solidify at the bottom of a 24-well plate for 30 min. 250 μL of HUVEC EGM-2 media containing 0.2% FBS was then added to each matrigel-coated well, and […] HTS Fluoroblock inserts were fitted into each well. 1×10^5 HUVEC's, resuspended in 0.5 mL of starvation media, were seeded into each insert and allowed to migrate along the matrigel gradient for 16-18 hours at 37° C. Upon completion of the assay, the inserts were mounted on slides and analyzed as described above (See Matrigel Invasion Assay).

The subject of the next assay is MeWo-LM2 cells. The assay is described as follows: Lung metastatic colonization by MeWo-LM2 cells in NOD-SCID mice. Conditions: cells pre-incubated with recombinant ApoE 100 μg/mL for 24 hours before i.v. injection. The class given is in vivo, human. As for the experimental part:
After 8 hours, the transfection media was replaced with fresh media. After 48 hours, 1×10^5 cells were injected intravenously into NOD-SCID mice to assess lung metastatic colonization or through intracardiac injection into athymic nude mice to assess systemic metastasis. For cell invasion and endothelial recruitment in vitro assays, the cells were used 96 hours post-transfection.

As for `O=C(O)Cc1cccc(OCCCN(Cc2cccc(C(F)(F)F)c2Cl)CC(c2ccccc2)c2ccccc2)c1` [GW3965 2, 3-[3-[N-(2-Chloro-3-trifluoromethylbenzyl)-(2,2-diphenylethyl)amino]propyloxy] phenylacetic acid hydrochloride], the metastatic colonization result in [1] (HT-144 melanoma line) and in [1] (SK-Mel-334.2 primary melanoma line) was “suppressed” in each case. Also, the tumor growth inhibition in assay [2] was 70%; in [3], 49%. The overall survival entry in assay [4] is “extended”. Moreover, the “tumor growth and lung metastasis” value in assay [4] was “robustly inhibited”. Further, the tumor cell invasion entry in [5] is listed as “inhibition”. Also, the “breast cancer tumor size” value in assay [6] is “significant reduction”. For the same molecule, the “growth of in vivo-derived DTIC-resistant human melanoma tumors” value in assay [7] is “strongly inhibited”.

Turning to “recombinant human ApoE: recombinant human ApoE3 (4696, BioVision)”, the endothelial migration result with HUVEC's is reported as “sufficient to inhibit”. Besides, the “suppression of metastatic colonization” value in the assay on MeWo-LM2 cells was “over 300 fold”.
